Read-outs that look alike come from different tables or passages of the source.
Test: in vivo
Text: General Protocol for Prodrugs Rat PK Studies Conducted at ChemPartner, China
A total of three naïve male Wistar Han rats, 200-250 g, were received from Beijing VR Laboratory Animal Co. LTD. Following an acclimation period, the animals were assigned to the study based on acceptable health as determined by a staff veterinarian and catheter patency. Fasting of the animals before or after dosing was not required.
On Day 1, each animal received a single intramuscular injection of prepared test article at a target dose level of 20 mg/kg equivalent of EFdA and at a dose volume of 2 mL/kg. The injection sites were at gastrocnemius and identified with an indelible marker for daily monitoring during the study. The animals were manually restrained for dosing and were not sedated. The dose suspension was mixed well by inversion before each dose to ensure homogeneity. […] In addition, all animals are monitored twice daily by the veterinary staff for clinical abnormalities.
Blood samples were collected from the study animals as detailed in the sample collection Table 6 below
Each blood sample for PK (200 μL) was collected from tail vein. The blood was transferred to a tube containing NaF/Na2EDTA anticoagulant and inverted several times to mix. Draw 150 μL whole blood from the tube, add 150 uL 100 mM ammonium acetate, pH 4 buffer and mix well. The resulting blood samples were transferred to individual polypropylene tubes and immediately placed on dry ice until storage at nominally −80° C. prior to LC-MS/MS analysis.

[1] = day 49, single IM Example 1A 20 mg/kg
[2] = day 56, single IM Example 1A 20 mg/kg
[3] = day 63, single IM Example 1A 20 mg/kg
[4] = day 70, single IM Example 1A 20 mg/kg
[5] = day 77, single IM Example 1A 20 mg/kg
[6] = day 84, single IM Example 1A 20 mg/kg
[7] = day 91, single IM Example 1A 20 mg/kg
[8] = day 77, single IM Example 2A 56 mg/kg
[9] = day 84, single IM Example 2A 56 mg/kg

C#C[C@]1(COP(=O)(N[C@@H](Cc2ccccc2)C(=O)OCCCCCCCCCCCCCCCCCCCCCC)Oc2ccccc2)O[C@@H](n2cnc3c(N)nc(F)nc32)C[C@@H]1O (single isomer, unassigned) [Example 1A]
Mean concentration of EFdA (day 21, single IM Example 1A 20 mg/kg): BQL
Mean concentration of EFdA (day 35, single IM Example 1A 20 mg/kg): BQL
Mean concentration of EFdA (day 42, single IM Example 1A 20 mg/kg): BQL
Mean concentration of EFdA [1]: BQL
Mean concentration of Example 1A [1]: BQL (BQL = below quantification limit, 0.3-0.5 ng/mL for Example 1A and 0.1-o.3 ng/mL for EFdA)
Mean concentration of EFdA [2]: BQL
Mean concentration of Example 1A [2]: BQL (BQL = below quantification limit, 0.3-0.5 ng/mL for Example 1A and 0.1-o.3 ng/mL for EFdA)
Mean concentration of EFdA [3]: BQL
Mean concentration of Example 1A [3]: BQL (BQL = below quantification limit, 0.3-0.5 ng/mL for Example 1A and 0.1-o.3 ng/mL for EFdA)
Mean concentration of EFdA [4]: BQL
Mean concentration of Example 1A [4]: BQL (BQL = below quantification limit, 0.3-0.5 ng/mL for Example 1A and 0.1-o.3 ng/mL for EFdA)
Mean concentration of EFdA [5]: BQL
Mean concentration of Example 1A [5]: BQL (BQL = below quantification limit, 0.3-0.5 ng/mL for Example 1A and 0.1-o.3 ng/mL for EFdA)
Mean concentration of EFdA [6]: BQL
Mean concentration of Example 1A [6]: BQL (BQL = below quantification limit, 0.3-0.5 ng/mL for Example 1A and 0.1-o.3 ng/mL for EFdA)
Mean concentration of EFdA [7]: BQL
Mean concentration of Example 1A [7]: BQL (BQL = below quantification limit, 0.3-0.5 ng/mL for Example 1A and 0.1-o.3 ng/mL for EFdA)
concentration at 7 day (male, Wistar Han, rat, in vivo, 20 mg/kg equivalent of EFdA, day 7, single IM Example 1A 20 mg/kg, read-out: Mean concentration of Example 1A): 6.38 ng/mL
concentration at 14 day (male, Wistar Han, rat, in vivo, 20 mg/kg equivalent of EFdA, day 14, single IM Example 1A 20 mg/kg, read-out: Mean concentration of Example 1A): 1.86 ng/mL
concentration at 21 day (male, Wistar Han, rat, in vivo, 20 mg/kg equivalent of EFdA, day 21, single IM Example 1A 20 mg/kg, read-out: Mean concentration of Example 1A): 3.42 ng/mL
concentration at 1 day (male, Wistar Han, rat, in vivo, day 1, single IM Example 1A 20 mg/kg, read-out: Mean concentration of Example 1A): 65.3 ng/mL
concentration at 28 day (male, Wistar Han, rat, in vivo, day 28, single IM Example 1A 20 mg/kg, read-out: Mean concentration of Example 1A): 2.72 ng/mL
concentration at 35 day (male, Wistar Han, rat, in vivo, day 35, single IM Example 1A 20 mg/kg, read-out: Mean concentration of Example 1A): 1.34 ng/mL
concentration at 42 day (male, Wistar Han, rat, in vivo, day 42, single IM Example 1A 20 mg/kg, read-out: Mean concentration of Example 1A): 0.633 ng/mL

C#C[C@]1(COP(=O)(N[C@@H](Cc2ccccc2)C(=O)OCCCCCCCCCCCCCCCCCCCCCC)Oc2ccccc2)O[C@@H](n2cnc3c(N)nc(F)nc32)C[C@@H]1O (single isomer, unassigned) [Example 1B]
Mean concentration of EFdA (day 1, single IM Example 1B 62 mg/kg): BQL (BQL = below quantification limit; 0.3 ng/mL for both)
Mean concentration of EFdA (day 7, single IM Example 1B 62 mg/kg): BQL (BQL = below quantification limit; 0.3 ng/mL for both)
Mean concentration of EFdA (day 14, single IM Example 1B 62 mg/kg): BQL (BQL = below quantification limit; 0.3 ng/mL for both)
Mean concentration of EFdA (day 21, single IM Example 1B 62 mg/kg): BQL (BQL = below quantification limit; 0.3 ng/mL for both)
Mean concentration of EFdA (day 28, single IM Example 1B 62 mg/kg): BQL (BQL = below quantification limit; 0.3 ng/mL for both)
Mean concentration of EFdA (day 35, single IM Example 1B 62 mg/kg): BQL (BQL = below quantification limit; 0.3 ng/mL for both)
Mean concentration of EFdA (day 42, single IM Example 1B 62 mg/kg): BQL (BQL = below quantification limit; 0.3 ng/mL for both)
Mean concentration of EFdA (day 49, single IM Example 1B 62 mg/kg): BQL (BQL = below quantification limit; 0.3 ng/mL for both)
Mean concentration of EFdA (day 56, single IM Example 1B 62 mg/kg): BQL (BQL = below quantification limit; 0.3 ng/mL for both)
Mean concentration of EFdA (day 63, single IM Example 1B 62 mg/kg): BQL (BQL = below quantification limit; 0.3 ng/mL for both)
Mean concentration of EFdA (day 70, single IM Example 1B 62 mg/kg): BQL (BQL = below quantification limit; 0.3 ng/mL for both)
Mean concentration of EFdA (day 77, single IM Example 1B 62 mg/kg): BQL (BQL = below quantification limit; 0.3 ng/mL for both)
Mean concentration of EFdA (day 84, single IM Example 1B 62 mg/kg): BQL (BQL = below quantification limit; 0.3 ng/mL for both)
concentration at 1 day (male, Wistar Han, rat, in vivo, day 1, single IM Example 1B 62 mg/kg, read-out: Mean concentration of Example 1B): 70.5 ng/mL
concentration at 7 day (male, Wistar Han, rat, in vivo, day 7, single IM Example 1B 62 mg/kg, read-out: Mean concentration of Example 1B): 8.75 ng/mL
concentration at 14 day (male, Wistar Han, rat, in vivo, day 14, single IM Example 1B 62 mg/kg, read-out: Mean concentration of Example 1B): 6.78 ng/mL
concentration at 21 day (male, Wistar Han, rat, in vivo, day 21, single IM Example 1B 62 mg/kg, read-out: Mean concentration of Example 1B): 3.53 ng/mL
concentration at 28 day (male, Wistar Han, rat, in vivo, day 28, single IM Example 1B 62 mg/kg, read-out: Mean concentration of Example 1B): 4.36 ng/mL
concentration at 35 day (male, Wistar Han, rat, in vivo, day 35, single IM Example 1B 62 mg/kg, read-out: Mean concentration of Example 1B): 1.72 ng/mL
concentration at 42 day (male, Wistar Han, rat, in vivo, day 42, single IM Example 1B 62 mg/kg, read-out: Mean concentration of Example 1B): 1.92 ng/mL
concentration at 49 day (male, Wistar Han, rat, in vivo, day 49, single IM Example 1B 62 mg/kg, read-out: Mean concentration of Example 1B): 0.912 ng/mL
concentration at 56 day (male, Wistar Han, rat, in vivo, day 56, single IM Example 1B 62 mg/kg, read-out: Mean concentration of Example 1B): 1.33 ng/mL
concentration at 63 day (male, Wistar Han, rat, in vivo, day 63, single IM Example 1B 62 mg/kg, read-out: Mean concentration of Example 1B): 0.748 ng/mL
concentration at 70 day (male, Wistar Han, rat, in vivo, day 70, single IM Example 1B 62 mg/kg, read-out: Mean concentration of Example 1B): 0.767 ng/mL
concentration at 77 day (male, Wistar Han, rat, in vivo, day 77, single IM Example 1B 62 mg/kg, read-out: Mean concentration of Example 1B): 1.55 ng/mL
concentration at 84 day (male, Wistar Han, rat, in vivo, day 84, single IM Example 1B 62 mg/kg, read-out: Mean concentration of Example 1B): 2.48 ng/mL

C#C[C@]1(COP(=O)(N[C@@H](Cc2ccccc2)C(=O)OCCCCCCCCCCCCCCCC)Oc2ccccc2)O[C@@H](n2cnc3c(N)nc(F)nc32)C[C@@H]1O (single isomer, unassigned) [Example 2A]
Mean concentration of Example 2A (day 42, single IM Example 2A 56 mg/kg): BQL
Mean concentration of Example 2A (day 49, single IM Example 2A 56 mg/kg): BQL
Mean concentration of Example 2A (day 70, single IM Example 2A 56 mg/kg): BQL
Mean concentration of EFdA [8]: BQL (BQL = below quantification limit, o.5 ng/mL for Example 2A and 0.1-0.3 ng/mL for EFdA)
Mean concentration of Example 2A [8]: BQL
Mean concentration of EFdA [9]: BQL (BQL = below quantification limit, o.5 ng/mL for Example 2A and 0.1-0.3 ng/mL for EFdA)
Mean concentration of Example 2A [9]: BQL
concentration at 1 day (male, Wistar Han, rat, in vivo, day 1, single IM Example 2A 56 mg/kg, read-out: Mean concentration of Example 2A): 3.54 ng/mL
concentration at 7 day (male, Wistar Han, rat, in vivo, day 7, single IM Example 2A 56 mg/kg, read-out: Mean concentration of Example 2A): 1.35 ng/mL
concentration at 14 day (male, Wistar Han, rat, in vivo, day 14, single IM Example 2A 56 mg/kg, read-out: Mean concentration of Example 2A): 3.35 ng/mL
concentration at 21 day (male, Wistar Han, rat, in vivo, day 21, single IM Example 2A 56 mg/kg, read-out: Mean concentration of Example 2A): 2.42 ng/mL
concentration at 28 day (male, Wistar Han, rat, in vivo, day 28, single IM Example 2A 56 mg/kg, read-out: Mean concentration of Example 2A): 4.08 ng/mL
concentration at 35 day (male, Wistar Han, rat, in vivo, day 35, single IM Example 2A 56 mg/kg, read-out: Mean concentration of Example 2A): 4.53 ng/mL
concentration at 56 day (male, Wistar Han, rat, in vivo, day 56, single IM Example 2A 56 mg/kg, read-out: Mean concentration of Example 2A): 1.14 ng/mL
concentration at 63 day (male, Wistar Han, rat, in vivo, day 63, single IM Example 2A 56 mg/kg, read-out: Mean concentration of Example 2A): 1.05 ng/mL

Source: patent publication US20230151049A1, “Compounds Useful in HIV Therapy” (priority 2020, published 2023)
